According to patent publication EP0090510A2, “O-carbamoyl salicylates and their preparation” (Council of Scientific and Industrial Research, priority 1983, dated 1983):

Tests used:
Type in all cases: in vivo
Settings in all cases: Dose : 200 mg/kg
[1] = Anti-inflammatory, granuloma test
[2] = Anti-inflammatory, edema test
[3] = Analgesic protection, writhing test; parameters: unit not given here

Molecule	Anti-inflammatory %Inhibition Granuloma [1] [%]	Anti-inflammatory %Inhibition Raw edema [2] [%]	Analgesic protection Writhing [3]
NC(=O)Oc1ccccc1C(=O)Oc1ccccc1 [compound 4]	57.65	93.19	72.00
NC(=O)Oc1ccccc1C(=O)Oc1ccccc1Cl [compound 5]	35.06	35.00	70.00
NC(=O)Oc1ccccc1C(=O)Oc1ccc(Cl)cc1 [compound 6]	41.45	37.88	83.00
NC(=O)Oc1ccccc1C(=O)Oc1ccc(Cl)cc1Cl [compound 7]	34.40	28.77	76.00
Cc1cccc(OC(=O)c2ccccc2OC(N)=O)c1 [compound 8]	33.25	48.50	84.00
Cc1cc(OC(=O)c2ccccc2OC(N)=O)ccc1Cl [compound 9]	24.04	28.90	68.00
CCCCCCCCCCCCCCCc1cccc(OC(=O)c2ccccc2OC(N)=O)c1 [compound 10]	33.55	12.10	45.00
O-Carbamoyl (3-pentadecylphenyl) salicylate [Sl. No. 10]	19.79	34.85	67.00
O-Carbamoyl ethylsalicylate [Sl. No. 2]	46.32	76.23	69.78
O-Carbamoyl phenylsalicylate [Sl. No. 4]	28.63	34.86	95.00
